Where a name gives a salt, the structure may show the parent alone.

Broadly, the viability is a read-out of living cells in per cent, often relative to untreated cells.

The data set in a line: in vitro. Conditions: human, hek293t cells.
`Cc1cc(C)cc(OCCN(C)C(=O)CCl)c1` [6-F03, 2-chloro-N-[2-(3,5-dimethylphenoxy)ethyl]-N-methylacetamide]: the viability at 48 h, 25 µM is 0.538%.
Next, `O=C(CCl)NCC(=O)N1CCC(Cc2ccccc2)CC1` [6-F04, N-[2-(4-benzylpiperidin-1-yl)-2-oxoethyl]-2-chloroacetamide]: 21.7%; `CC(Cl)C(=O)N1CCC(c2nc(N(C)C)no2)CC1` (stereo not drawn) [6-F05, 2-chloro-1-{4-[3-(dimethylamino)-1,2,4-oxadiazol-5-yl]piperidin-1-yl}propan-1-one]: 108%.
In the case of `CC(Cl)C(=O)NCCc1ccc(F)cc1` (stereo not drawn) [6-F06, 2-chloro-N-[2-(4-fluorophenyl)ethyl]propanamide], the viability at 48 h, 25 µM amounted to 112%.
Regarding `CC(Cl)C(=O)NCC1CN(c2ccc(Cl)cc2)CCO1` (stereo not drawn) [6-F07, 2-chloro-N-{[4-(4-chlorophenyl)morpholin-2-yl]methyl}propanamide], the viability at 48 h, 25 µM is 101%.
In the case of `O=C(CCl)N1CCSc2c([nH]c3ccccc23)C1` [6-F08, 2-chloro-1-{2H,3H,4H,5H,6H-[1,4]thiazepino[6,7-b]indol-4-yl}ethan-1-one], the viability at 48 h, 25 µM stood at 1.68%.
Next, `CC(Cl)C(=O)NCc1nc(-c2cccc(C#N)c2)c[nH]1` (stereo not drawn) [6-F09, 2-chloro-N-{[4-(3-cyanophenyl)-1H-imidazol-2-yl]methyl}propanamide]: 113%; `Cc1cccc(C)c1NC(=O)CNC(=O)C(C)Cl` (stereo not drawn) [6-F10, 2-chloro-N-{[(2,6-dimethylphenyl)carbamoyl]methyl}propanamide]: 106%; `Cc1noc(C)c1CC(=O)N1CCN(C(=O)C(C)Cl)CC1` (stereo not drawn) [6-F11, 2-chloro-1-{4-[2-(3,5-dimethyl-1,2-oxazol-4-yl)acetyl]piperazin-1-yl}propan-1-one]: 106%.
Turning to `COc1ccc(NC(=O)C(C)Cl)cc1OC` (stereo not drawn) [6-F12, 2-chloro-N-(3,4-dimethoxyphenyl)propanamide], the viability at 48 h, 25 µM came to 109%.
On to `CC(CNC(=O)C(C)Cl)Oc1cccc(Cl)c1` (stereo not drawn) [6-F13, 2-chloro-N-[2-(3-chlorophenoxy)propyl]propanamide], for which the viability at 48 h, 25 µM was 103%.
For the compound `CC(Cl)C(=O)NCc1nnnn1CC1CC1` (stereo not drawn) [6-F14, 2-chloro-N-{[1-(cyclopropylmethyl)-1H-1,2,3,4-tetrazol-5-yl]methyl}propanamide], the viability at 48 h, 25 µM came to 115%.
Turning to `CC(Cl)C(=O)N1CCC(c2nccn2C)C1` (stereo not drawn) [6-F15, 2-chloro-1-[3-(1-methyl-1H-imidazol-2-yl)pyrrolidin-1-yl]propan-1-one], the viability at 48 h, 25 µM was 98.6%.
On to `CC(Cl)C(=O)N1CCCCC1C1CCCN(C(=O)C(F)(F)F)C1` (stereo not drawn) [6-F16, 2-chloro-1-[1'-(2,2,2-trifluoroacetyl)-[2,3'-bipiperidin]-1-yl]propan-1-one], for which the viability at 48 h, 25 µM was 105%.
Regarding `COc1ccc([C@H]2C[C@H](NC(=O)C(C)Cl)C2)cc1F` (stereo partly drawn) [6-F17, 2-chloro-N-[(1r,3r)-3-(3-fluoro-4-methoxyphenyl)cyclobutyl]propanamide], the viability at 48 h, 25 µM worked out at 91.5%.
As for `CC(Cl)C(=O)N1CCn2c(Cc3c(F)cccc3F)nnc2C1` (stereo not drawn) [6-F18, 2-chloro-1-{3-[(2,6-difluorophenyl)methyl]-5H,6H,7H,8H-[1,2,4]triazolo[4,3-a]pyrazin-7-yl}propan-1-one], the viability at 48 h, 25 µM came out at 100%.
Next, `O=C(CCl)NC(CC1CC1)c1ccc(Cl)cn1` (stereo not drawn) [6-F19, 2-chloro-N-[1-(5-chloropyridin-2-yl)-2-cyclopropylethyl]acetamide]: 1.46%.
The value for `CC(Cl)C(=O)N1Cc2ccccc2C(n2cccn2)C1` (stereo not drawn) [6-F20, 2-chloro-1-[4-(1H-pyrazol-1-yl)-1,2,3,4-tetrahydroisoquinolin-2-yl]propan-1-one] was 103%; that for `CC(Cl)C(=O)NC1(c2nnc[nH]2)CCC1` (stereo not drawn) [6-F21, 2-chloro-N-[1-(4H-1,2,4-triazol-3-yl)cyclobutyl]propanamide] was 87.6%.
For the compound `CC(Cl)C(=O)N1CCn2c(C#N)ccc2C1C` (stereo not drawn) [6-F22, 2-(2-chloropropanoyl)-1-methyl-1H,2H,3H,4H-pyrrolo[1,2-a]pyrazine-6-carbonitrile], the viability at 48 h, 25 µM was found to be 98.2%.
Take `O=C(CCl)NCCOc1cccc(F)c1` [6-G03, 2-chloro-N-[2-(3-fluorophenoxy)ethyl]acetamide]: the viability at 48 h, 25 µM came to 97.9%.
Take `O=C(CCl)NCc1ccc(C(=O)N2CCCC2)cc1` [6-G04, 2-chloro-N-{[4-(pyrrolidine-1-carbonyl)phenyl]methyl}acetamide]: the viability at 48 h, 25 µM is 107%.
For `O=C(CCl)NCCOc1cccc(Cl)c1` [6-G05, 2-chloro-N-[2-(3-chlorophenoxy)ethyl]acetamide], the viability at 48 h, 25 µM was 107%.
Turning to `CC(c1cccc([N+](=O)[O-])c1)N(C)C(=O)CCl` (stereo not drawn) [6-G06, 2-chloro-N-methyl-N-[1-(3-nitrophenyl)ethyl]acetamide], the viability at 48 h, 25 µM turned out to be 1.19%.
Next, `CC(Cl)C(=O)Nc1ccc(NC(=O)c2cccs2)cc1` (stereo not drawn) [6-G07, N-[4-(2-chloropropanamido)phenyl]thiophene-2-carboxamide]: 101%; `O=C(CCl)NCc1ccc(OC(F)(F)F)cc1` [6-G08, 2-chloro-N-{[4-(trifluoromethoxy)phenyl]methyl}acetamide]: 1.3%.
As for `COc1cc2c(cc1NC(=O)C(C)Cl)oc1ccccc12` (stereo not drawn) [6-G09, 2-chloro-N-{4-methoxy-8-oxatricyclo[7.4.0.0,2,7]trideca-1(9),2(7),3,5,10,12-hexaen-5-yl}propanamide], the viability at 48 h, 25 µM came out at 93%.
For the compound `CC(Cl)C(=O)Nc1ccccc1C(=O)c1ccccc1` (stereo not drawn) [6-G10, N-(2-benzoylphenyl)-2-chloropropanamide], the viability at 48 h, 25 µM came out at 102%.
For `CC1CN(CCCNC(=O)CCl)CC(C)O1` (stereo not drawn) [6-G11, 2-chloro-N-[3-(2,6-dimethylmorpholin-4-yl)propyl]acetamide hydrochloride], the viability at 48 h, 25 µM is 116%.
`O=C(CCl)N1CCC(CCc2ccccc2)CC1` [6-G12, 2-chloro-1-[4-(2-phenylethyl)piperidin-1-yl]ethan-1-one]: the viability at 48 h, 25 µM is 1.05%.
Turning to `COc1ccc(S(=O)(=O)N2CCCCC2)cc1NC(=O)CCl` [6-G13, 2-chloro-N-[2-methoxy-5-(piperidine-1-sulfonyl)phenyl]acetamide], the viability at 48 h, 25 µM was 1.34%.
The value for `O=C(CCl)Nc1cc(S(=O)(=O)N2CCCC2)ccc1Cl` [6-G14, 2-chloro-N-[2-chloro-5-(pyrrolidine-1-sulfonyl)phenyl]acetamide] was 1.44%; that for `COc1ccc(Cl)cc1NC(=O)C(C)Cl` (stereo not drawn) [6-G16, 2-chloro-N-(5-chloro-2-methoxyphenyl)propanamide] was 112%.
As to `O=C(CCl)NCC(c1ccccc1Cl)N1CCCC1` (stereo not drawn) [6-G17, 2-chloro-N-[2-(2-chlorophenyl)-2-(pyrrolidin-1-yl)ethyl]acetamide hydrochloride], the viability at 48 h, 25 µM came to 104%.
Take `O=C(CCl)NC1CCN(Cc2ccccc2)C1` (stereo not drawn) [6-G18, N-(1-benzylpyrrolidin-3-yl)-2-chloroacetamide hydrochloride]: the viability at 48 h, 25 µM was found to be 3.85%.
As for `O=C(CCl)NC1CCC(c2nc(-c3ccccc3)n[nH]2)CC1` (stereo not drawn) [6-G19, 2-chloro-N-[4-(3-phenyl-1H-1,2,4-triazol-5-yl)cyclohexyl]acetamide], the viability at 48 h, 25 µM amounted to 39.3%.

These data come from paper PMC11995724, “Antibiotic target discovery by integrated phenotypic and activity-based profiling of electrophilic fragments” (Cell chemical biology, 2025).
